Source: PMC4710668, “Bioactivation of food genotoxicants 5-hydroxymethylfurfural and furfuryl alcohol by sulfotransferases from human, mouse and rat: a comparative study” (Archives of Toxicology, 2014)
Several values for one entry are separate records, joined by “and”; a condition that tells them apart may be missing. Identical values can stand only once.

How the values were obtained:
Assay in all cases: FFA sulfoconjugation assay (N6-MF-A formation with adenosine as scavenger)
Assay type in all cases: biochemical
hSULT1B1 = target: T1, hSULT1B1 (Homo sapiens, UniProt O43704)
T1 construct: made in house; host or cells: Salmonella typhimurium TA1538 (cytosolic fraction, not purified)
T1 sequence (O43704 whole entry): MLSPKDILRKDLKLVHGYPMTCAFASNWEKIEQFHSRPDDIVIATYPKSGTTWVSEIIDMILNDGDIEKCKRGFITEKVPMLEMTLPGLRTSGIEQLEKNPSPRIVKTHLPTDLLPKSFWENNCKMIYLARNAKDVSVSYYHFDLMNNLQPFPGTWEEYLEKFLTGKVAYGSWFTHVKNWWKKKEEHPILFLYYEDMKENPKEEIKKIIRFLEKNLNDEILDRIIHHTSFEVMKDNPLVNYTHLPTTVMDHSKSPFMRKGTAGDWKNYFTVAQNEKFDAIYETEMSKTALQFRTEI
Experimental: (§1) Cytosolic fractions containing individual SULT forms were prepared from transgenic S. typhimurium TA1538. Table S1 in the Supplementary Material provides a summary of the thirty SULTs used in the current study together with references describing the cloning of the respective S. typhimurium TA1538 strains. The expressed SULT forms are denoted with the prefixes h, m and r for human, mouse and rat enzymes, respectively. Bacteria were grown in Luria Broth medium containing ampicillin (100 µg/ml) by stirring for 8 h at 200 revolutions/min at 37 °C. The bacterial suspensions were centrifuged at 5,000 g for 10 min. The sediments were washed twice with 25 ml of 10 mM potassium phosphate buffer (pH 7.4)/50 mM potassium chloride (KCP buffer) and centrifuged again. The pellets were taken up in 800 µl KCP buffer and sonicated thrice for 15 s with 30 s pauses in between. The soluble fraction was attained by centrifuging for 1 h at 100,000 g. The supernatants (in the following termed cytosolic preparations) were frozen at −80 °C. The protein concentrations were determined according to a bicinchoninic acid (BCA) assay protocol. The SULT concentrations in the cytosolic preparations were estimated after electrophoretic separation and immunodetection using inclusion bodies of different SULT forms as standards (Teubner et al. [2007]). The preparation of SULT inclusion bodies and the immunodetection of SULTs is described in the Supplementary Material, which also contains a representative immunoblot of different amounts of rSult1a1standard and a cytosolic preparation of S. typhimurium expressing rSult1a1 (Fig. S1).
(§2) The reaction mixtures were prepared as described for HMF. In addition, they contained 10 mM adenosine as a nucleophilic scavenger. Following incubation for 20 min at 37 °C, sulfoconjugation reactions were stopped by adding 100 µl cold methanol containing 175 fmol of [^15N5]N ^6-MF-A as the internal standard, mixed and centrifuged at 15,000 g for 10 min. The clear supernatants were subjected to UPLC-MS/MS analyses. Incubations were performed as quadruplicates. At higher concentrations, FFA reacts spontaneously with adenosine at low, but detectable, levels. To correct for the SULT-independent adduct formation, mixtures with SULT-deficient cytosols were carried along simultaneously in duplicate. Controls were subtracted from the experimental samples.
(§3) The ribonucleoside adduct N ^6-((furan-2-yl)methyl)-adenosine (N ^6-MF-A) was analyzed by isotope-dilution UPLC-MS/MS with the same system described above using a HSS T3 column (1.8 µm, 2.1 × 100 mm, Waters). Samples of 8 µl were eluted with 10 mM ammonium bicarbonate buffer, pH 8.0 (A) and methanol (B) using an 6-min gradient from 98 % solvent A to 15 % solvent A at 0.35 ml/min flow rate (Yin et al. [2013]). The electrospray interface of the mass spectrometer operated in the positive ion mode. The fragmentations of N ^6-MF-A into the aglycone cation [N ^6-((furan-2-yl)methyl)-adenine-H]^+ (m/z = 348.1 → 216.1), the cleavage of the 2-methylfuranyl cation (m/z = 348.1 → 81.0) and the release of [N ^6-methyl-adenine-H]^+ (m/z = 348.1 → 148.0) were monitored together with the corresponding fragmentations of the isotope-labeled internal standard [^15N5]N ^6-MF-A for the formation of the aglycone (m/z = 353.1 → 221.1), the 2-methylfuran cation (m/z = 353.1 → 81.0) and ^15N5-labeled N ^6-methyl-adenine (m/z = 353.1 → 153.0). The N ^6-MF-A content of the incubation mixture was calculated from the ratio of peak areas resulting from the total ion current of all three MRM signals of the analyte. For the fragmentation of N ^6-MF-A ([^15N5]N ^6-MF-A), collision energies were 20, 25 and 35 eV for the transitions m/z = 348.1 → 216.1 (m/z = 353.1 → 221.1), m/z = 348.1 → 148.0 (m/z = 353.1 → 153.0) and m/z = 348.1 → 81.0 (m/z = 353.1 → 81.0), respectively. […]

hSULT1C2 = target: T2, hSULT1C2 (Homo sapiens, UniProt O75897)
T2 construct: made in house; host or cells: Salmonella typhimurium TA1538 (cytosolic fraction, not purified)
T2 sequence (O75897 whole entry): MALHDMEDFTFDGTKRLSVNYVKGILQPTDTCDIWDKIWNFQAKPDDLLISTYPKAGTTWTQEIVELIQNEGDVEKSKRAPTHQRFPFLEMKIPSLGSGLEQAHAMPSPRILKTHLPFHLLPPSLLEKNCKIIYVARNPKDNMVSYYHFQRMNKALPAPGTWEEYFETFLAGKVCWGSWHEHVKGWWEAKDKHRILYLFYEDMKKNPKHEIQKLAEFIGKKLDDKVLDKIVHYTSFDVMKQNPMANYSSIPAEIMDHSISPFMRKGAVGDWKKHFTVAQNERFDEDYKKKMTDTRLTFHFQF
Experimental: as §1, §2, §3

rSult1b1 = target: T3, rSult1b1 (Rattus norvegicus, UniProt P52847)
T3 construct: made in house; host or cells: Salmonella typhimurium TA1538 (cytosolic fraction, enzyme not purified)
T3 sequence (P52847 whole entry): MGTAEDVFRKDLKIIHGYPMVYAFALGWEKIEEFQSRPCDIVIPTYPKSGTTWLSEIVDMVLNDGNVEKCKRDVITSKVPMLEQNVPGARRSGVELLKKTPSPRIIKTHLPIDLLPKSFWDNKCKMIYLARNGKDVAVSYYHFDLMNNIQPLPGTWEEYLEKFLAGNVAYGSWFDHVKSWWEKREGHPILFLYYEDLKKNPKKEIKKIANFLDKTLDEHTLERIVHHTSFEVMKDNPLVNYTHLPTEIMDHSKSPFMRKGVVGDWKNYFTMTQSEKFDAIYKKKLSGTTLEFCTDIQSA
Experimental: as §1, §2, §3

rSult2a1 = target: T4, rSult2a1 (Rattus norvegicus, UniProt P15709)
T4 construct: made in house; host or cells: Salmonella typhimurium TA1538 (cytosolic fraction, enzyme not purified)
T4 sequence (P15709 1-284): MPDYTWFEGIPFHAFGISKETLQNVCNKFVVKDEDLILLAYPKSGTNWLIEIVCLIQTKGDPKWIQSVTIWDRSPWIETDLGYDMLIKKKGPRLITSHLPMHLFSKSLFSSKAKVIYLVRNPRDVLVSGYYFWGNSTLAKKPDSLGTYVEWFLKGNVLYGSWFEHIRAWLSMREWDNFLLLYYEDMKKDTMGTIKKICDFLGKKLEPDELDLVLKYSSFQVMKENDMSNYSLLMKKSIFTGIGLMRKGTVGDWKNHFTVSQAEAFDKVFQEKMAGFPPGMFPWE
Experimental: as §1, §2, §3

mSult1a1 = target: T5, mSult1a1 (Mus musculus, UniProt P52840)
T5 construct: made in house; host or cells: Salmonella typhimurium TA1538 (cytosolic fraction, enzyme not purified)
T5 sequence (P52840 whole entry): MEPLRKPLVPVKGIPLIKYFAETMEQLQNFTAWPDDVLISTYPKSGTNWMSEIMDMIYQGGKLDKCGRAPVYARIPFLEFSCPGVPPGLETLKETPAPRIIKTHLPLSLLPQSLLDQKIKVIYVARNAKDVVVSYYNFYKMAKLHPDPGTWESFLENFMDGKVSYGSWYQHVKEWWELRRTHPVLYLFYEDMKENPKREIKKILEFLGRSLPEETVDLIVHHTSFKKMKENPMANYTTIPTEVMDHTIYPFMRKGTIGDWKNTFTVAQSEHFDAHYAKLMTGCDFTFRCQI
Experimental: as §1, §2, §3

mSult2a1 = target: T6, mSult2a1 (Mus musculus, UniProt P52843)
T6 construct: made in house; host or cells: Salmonella typhimurium TA1538 (cytosolic fraction, enzyme not purified)
T6 sequence (P52843 1-285): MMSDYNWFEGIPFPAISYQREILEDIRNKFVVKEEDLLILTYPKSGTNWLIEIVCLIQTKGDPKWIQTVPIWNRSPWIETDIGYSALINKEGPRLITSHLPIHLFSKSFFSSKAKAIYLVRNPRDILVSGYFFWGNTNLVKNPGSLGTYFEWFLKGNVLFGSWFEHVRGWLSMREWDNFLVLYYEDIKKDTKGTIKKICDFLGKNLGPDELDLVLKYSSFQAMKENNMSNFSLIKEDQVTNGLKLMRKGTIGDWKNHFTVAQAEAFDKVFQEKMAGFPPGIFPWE
Experimental: as §1, §2, §3

[1] = 1 mM FFA, corrected by actual SULT concentration in the cytosolic preparation

OCc1ccco1 [FFA, furfuryl alcohol]
Rate of N6-MF-A formation (hSULT1B1; 0.1 mM FFA): 23.3 ± 0.3 fmol N ^6-MF-A/mg/min | Rate of N6-MF-A formation (hSULT1B1; 1 mM FFA): 211 ± 2 fmol N ^6-MF-A/mg/min | Rate of N6-MF-A formation (corr.) (hSULT1B1; [1]): 5,010 ± 50 fmol N ^6-MF-A/mg/min | Rate of N6-MF-A formation (hSULT1B1; 10 mM FFA): 1,070 ± 20 fmol N ^6-MF-A/mg/min | Rate of N6-MF-A formation (hSULT1C2; 0.1 mM FFA): 51.3 ± 0.8 fmol N ^6-MF-A/mg/min | Rate of N6-MF-A formation (hSULT1C2; 1 mM FFA): 459 ± 2 fmol N ^6-MF-A/mg/min | Rate of N6-MF-A formation (corr.) (hSULT1C2; [1]): 45,900 fmol N ^6-MF-A/mg/min and 45,900 ± 200 fmol N ^6-MF-A/mg/min | Rate of N6-MF-A formation (hSULT1C2; 10 mM FFA): 2,230 ± 10 fmol N ^6-MF-A/mg/min | Rate of N6-MF-A formation (rSult1b1; 0.1 mM FFA): <18 fmol N ^6-MF-A/mg/min | Rate of N6-MF-A formation (rSult1b1; 1 mM FFA): 34.3 ± 1.0 fmol N ^6-MF-A/mg/min | Rate of N6-MF-A formation (rSult1b1; 10 mM FFA): 314 ± 4 fmol N ^6-MF-A/mg/min | Rate of N6-MF-A formation (rSult2a1; 0.1 mM FFA): <18 fmol N ^6-MF-A/mg/min | Rate of N6-MF-A formation (rSult2a1; 1 mM FFA): 24.8 ± 1.4 fmol N ^6-MF-A/mg/min | Rate of N6-MF-A formation (rSult2a1; 10 mM FFA): 228 ± 7 fmol N ^6-MF-A/mg/min | Rate of N6-MF-A formation (mSult1a1; 0.1 mM FFA): 361 ± 4 fmol N ^6-MF-A/mg/min | Rate of N6-MF-A formation (mSult1a1; 1 mM FFA): 2,590 ± 20 fmol N ^6-MF-A/mg/min | Rate of N6-MF-A formation (corr.) (mSult1a1; [1]): 61,700 fmol N ^6-MF-A/mg/min and 61,700 ± 400 fmol N ^6-MF-A/mg/min | ratio of N6-MF-A formation rate, mSult1a1 vs mSult1d1 (mSult1a1; 1 mM FFA, corrected rates): about 14 fold | Rate of N6-MF-A formation (mSult1a1; 10 mM FFA): 5,140 ± 60 fmol N ^6-MF-A/mg/min | Rate of N6-MF-A formation (mSult2a1; 0.1 mM FFA): <18 fmol N ^6-MF-A/mg/min | Rate of N6-MF-A formation (mSult2a1; 1 mM FFA): <20 fmol N ^6-MF-A/mg/min | Rate of N6-MF-A formation (mSult2a1; 10 mM FFA): 154 ± 2 fmol N ^6-MF-A/mg/min
